We go through 9 compounds from US20220211692A1, “Modulators of the Cystic Fibrosis Transmembrane Conductance Regulator Protein and Methods of Use” (AbbVie Global Enterprises Ltd., priority 2021, published 2022).

SMILES strings stand for the structures. Like-named read-outs stand apart in the source and are kept apart here.

The target in one assay is T1, F508delCFTR (Homo sapiens, UniProt P13569, DEL508-508).
T1 construct: expressed in transfected cells; host or cells: CFBE41o- human lung derived epithelial cell line, doxycycline-induced expression
The experiment in a line: Cell Surface Expression-Horse Radish Peroxidase (CSE-HRP) assay in CFBE41o-F508delCFTR-HRP cells. Type of assay: cell-based. Conditions: for EC50: CFBE41o-F508delCFTR-HRP cells, 18-24 hours at 33° C.; for Maximum % activity (with co-corrector) / Emax: normalized to on-plate positive control; for Emax: read-out: Maximum % activity (without co-corrector). As to the method: A cellular assay for measuring the F508delCFTR cell surface expression after correction with test compounds either without or with a co-corrector (2 μM of 3-[(2R,4R)-4-({[1-(2,2-difluoro-1,3-benzodioxol-5-yl)cyclopropyl]carbonyl}amino)-7-methoxy-3,4-dihydro-2H-chromen-2-yl]benzoic acid), was developed in human lung derived epithelial cell line (CFBE41o-) (Veit G et al, (2012) Mol Biol Cell. 23(21): 4188-4202). The development was achieved by expressing the F508delCFTR mutation along with a horseradish peroxidase (HRP) in the fourth exofacial loop, and then measuring the HRP activity using luminescence readout from these cells, CFBE41o-F508delCFTR-HIRP, that were incubated overnight with the test corrector compounds, either without or with the co-corrector. For this primary assay, the CFBE41o-F508delCFTR-HRP cells were plated in 384-well plates (Greiner Bio-one; Cat 781080) at 4,000 cells/well along with 0.5 μg/mL doxycycline to induce the F508delCFTR-HRP expression and further incubated at 37° C., […] for 68-72 hours. The test compounds were then added either without or with a co-corrector at the required concentrations and further incubated for 18-24 hours at 33° C. The highest concentration tested was 20 μM or 30 μM (GI-1 to GIII-36) with an 8-point concentration response curve using a 3-fold dilution in both the test compound without or with the co-corrector. Three replicate plates were run to determine one EC50. All plates contained negative controls (dimethyl sulfoxide, DMSO) and positive control (2 μM or 3 μM (GI-1 to GIII-36) of 3-[(2R,4R)-4-({[1-(2,2-difluoro-1,3-benzodioxol-5-yl)cyclopropyl]carbonyl}amino)-7-methoxy-3,4-dihydro-2H-chromen-2-yl]benzoic acid) as well as on-plate concentration response of the positive control. Post incubation, the plates were washed 5× times with Dulbecco's phosphate buffered saline (DPBS), followed by the addition of the HRP substrate, luminol (50 μL), and measuring the HRP activity using luminescence readout on EnVision® Multilabel Plate Reader (Perkin Elmer; product number 2104-0010). The raw counts from the experiment were analyzed using Accelrys® Assay Explorer v3.3.
Z′ greater than 0.5 was used as passing quality control criteria for the plates. The Z′ is defined as:
1−[3*SDPositive Control+3*SDNegative Control/Absolute(MeanPositive Control−MeanNegative Control)]
The % activity measured at each of the 8 test concentrations of the test compound added either without or with a co-corrector (2 μM or 3 μM (GI-1 to GIII-36) of 3-[(2R,4R)-4-({[1-(2,2-difluoro-1,3-benzodioxol-5-yl)cyclopropyl]carbonyl}amino)-7-methoxy-3,4-dihydro-2H-chromen-2-yl]benzoic acid) was normalized to the on-plate positive control using the following formulae:
% activity (Test compound without co-corrector)=[(test compound without co-corrector response−DMSO response)/(positive control response−DMSO response)]*100
% activity (Test compound with co-corrector)=[(test compound with co-corrector response−DMSO response)/(positive control response−DMSO response)]*100
The maximum % activity achieved for the test compound either without or with a co-corrector at any tested concentration is presented in Table 3 along with the respective EC50's calculated using the following general sigmoidal curve with variable Hill slope equation (described as Model 42 in the Accelrys® Assay Explorer v3.3 software):
General sigmoidal curve with concentration, response, top, bottom, EC50 and Hill slope. This model describes a sigmoidal curve with an adjustable baseline, a. The equation can be used to fit curves where response is either increasing or decreasing with respect to the independent variable, “x”.

Another assay deals with T2, F508del/F508del CFTR (Homo sapiens, UniProt P13569, DEL508-508).
T2 construct: cells isolated from CF patients with the homozygous mutation; endogenous in cells; host or cells: primary human bronchial epithelial (hBE) cells from CF patients homozygous for F508del
In words: Trans-Epithelial Current Clamp (TECC) assay using primary human bronchial epithelial cells. Type of assay: cell-based. As to conditions: for Emax (% Dual): maximum percent activity relative to positive control (co-corrector 0.15 μM + potentiator 0.45 μM = 100%); for EC50: primary hBE cells F508del/F508del, test corrector with co-corrector and potentiator, 18-24 hours, equivalent CFTR current. The text has this:
A cell-based assay was developed using the primary human bronchial epithelial cells (hBE cells) with F508del/F508del CFTR and other mutations.
Primary human bronchial epithelial (hBE) cells from CFTR patients with homozygous F508del/F508del mutation were expanded from 1×10^6 to 250×10^6 cells (Neuberger, T et al., 2011, Methods Mol Biol 741:39-54). For this purpose, cells isolated from CF patients with the homozygous mutation, procured from the CF center tissue procurement and cell culture core at the Marsico Lung Institute at UNC (Randell), the Cystic Fibrosis translational research center at McGill University (University), and Rosalind Franklin University Medical School (RFUMS) were seeded onto 24 well Corning (Cat #3378) filter plates that were coated with 3T3 conditioned media and grown at an air-liquid interface for 35 days using an Ultroser® G supplemented differentiation media. All the primary human bronchial epithelial cells were collected in accordance with institutional review board approval protocols. Apical surface mucus was removed 72 hours before the experiment by incubating the apical surface of the cells for 30 minutes with 3 mM dithiothreitol (DTT) prepared in Dulbecco's phosphate buffered saline (DPBS) with Ca^2+ and Mg^2+. This was followed with aspiration of the mucus from the apical surface along with DPBS. The apical surface was re-washed with phosphate buffered saline (PBS) incubated for 30 minutes followed with aspiration. These hBE cells were then incubated with the desired concentrations of the test C2 corrector compounds along with co-corrector, 4-[(2R,4R)-4-({[1-(2,2-difluoro-1,3-benzodioxol-5-yl)cyclopropyl]carbonyl}amino)-7-(difluoromethoxy)-3,4-dihydro-2H-chromen-2-yl]benzoic acid and potentiator, (5-{3-amino-5-[4-(trifluoromethoxy)benzene-1-sulfonyl]pyridin-2-yl}-1,3,4-oxadiazol-2-yl)methanol, for 18-24 hours at 37° C., 5% CO2. The desired concentrations of the correctors and potentiator compounds were prepared from the 10 mM stocks in differentiation media and were always applied on the basolateral side of the epithelial cells. We also used an assay format where a fixed concentration of potentiator was added chronically along with the corrector compounds. This chronic treatment with the potentiator helped eliminate any interaction that might happen with CFTR modulators (correctors and potentiators) and thereby determined the true efficacy of the modulator combinations reflective of clinical relevance.
The assay uses a Transepithelial Current Clamp (TECC) (Vu, C B et al., 2017; J Med Chem 60:458-473) instrument that can measure the functionality of the mutated channel by measuring the equivalent CFTR current (IEQ) generated by the polarized primary epithelial cells. We used a TECC-24 with a 24-channel electrode manifold allowing for the simultaneous measurement of the transepithelial voltage, VT, and transepithelial resistance, RT, under current clamp conditions, from 24 filters using a 24 well Costar filter plate. The design of the filters in the 24 well filter plates was exactly the same as the design of an individual Transwell filter used in the classical Ussing Chamber with a surface area of 0.33 cm^2. Each measured VT values were corrected for the electrode offset potential measured using buffer alone in a separate plate, and each measured RT values were then corrected for the combined solution series and empty filter resistances. The corrected VT and RT values were then used to calculate the equivalent current, IEQ using Ohm's law (IEQ=VT/RT). The area under the curve (AUC) for the time period between the forskolin peak IEQ response and at the time of bumetanide addition was also calculated using a one-third trapezoid method, in addition to calculating the IEQ. The assay was run in a 24-well format and all 24-wells were measured at the same time point giving a higher throughput for this assay. […]

[1] abbreviates: with co-corrector 2 μM, read-out: EC50 (with co-corrector).
[2] abbreviates: without co-corrector, read-out: EC50 (without co-corrector).

T2 sequence (P13569 with tags, fused parts or gaps DEL508-508): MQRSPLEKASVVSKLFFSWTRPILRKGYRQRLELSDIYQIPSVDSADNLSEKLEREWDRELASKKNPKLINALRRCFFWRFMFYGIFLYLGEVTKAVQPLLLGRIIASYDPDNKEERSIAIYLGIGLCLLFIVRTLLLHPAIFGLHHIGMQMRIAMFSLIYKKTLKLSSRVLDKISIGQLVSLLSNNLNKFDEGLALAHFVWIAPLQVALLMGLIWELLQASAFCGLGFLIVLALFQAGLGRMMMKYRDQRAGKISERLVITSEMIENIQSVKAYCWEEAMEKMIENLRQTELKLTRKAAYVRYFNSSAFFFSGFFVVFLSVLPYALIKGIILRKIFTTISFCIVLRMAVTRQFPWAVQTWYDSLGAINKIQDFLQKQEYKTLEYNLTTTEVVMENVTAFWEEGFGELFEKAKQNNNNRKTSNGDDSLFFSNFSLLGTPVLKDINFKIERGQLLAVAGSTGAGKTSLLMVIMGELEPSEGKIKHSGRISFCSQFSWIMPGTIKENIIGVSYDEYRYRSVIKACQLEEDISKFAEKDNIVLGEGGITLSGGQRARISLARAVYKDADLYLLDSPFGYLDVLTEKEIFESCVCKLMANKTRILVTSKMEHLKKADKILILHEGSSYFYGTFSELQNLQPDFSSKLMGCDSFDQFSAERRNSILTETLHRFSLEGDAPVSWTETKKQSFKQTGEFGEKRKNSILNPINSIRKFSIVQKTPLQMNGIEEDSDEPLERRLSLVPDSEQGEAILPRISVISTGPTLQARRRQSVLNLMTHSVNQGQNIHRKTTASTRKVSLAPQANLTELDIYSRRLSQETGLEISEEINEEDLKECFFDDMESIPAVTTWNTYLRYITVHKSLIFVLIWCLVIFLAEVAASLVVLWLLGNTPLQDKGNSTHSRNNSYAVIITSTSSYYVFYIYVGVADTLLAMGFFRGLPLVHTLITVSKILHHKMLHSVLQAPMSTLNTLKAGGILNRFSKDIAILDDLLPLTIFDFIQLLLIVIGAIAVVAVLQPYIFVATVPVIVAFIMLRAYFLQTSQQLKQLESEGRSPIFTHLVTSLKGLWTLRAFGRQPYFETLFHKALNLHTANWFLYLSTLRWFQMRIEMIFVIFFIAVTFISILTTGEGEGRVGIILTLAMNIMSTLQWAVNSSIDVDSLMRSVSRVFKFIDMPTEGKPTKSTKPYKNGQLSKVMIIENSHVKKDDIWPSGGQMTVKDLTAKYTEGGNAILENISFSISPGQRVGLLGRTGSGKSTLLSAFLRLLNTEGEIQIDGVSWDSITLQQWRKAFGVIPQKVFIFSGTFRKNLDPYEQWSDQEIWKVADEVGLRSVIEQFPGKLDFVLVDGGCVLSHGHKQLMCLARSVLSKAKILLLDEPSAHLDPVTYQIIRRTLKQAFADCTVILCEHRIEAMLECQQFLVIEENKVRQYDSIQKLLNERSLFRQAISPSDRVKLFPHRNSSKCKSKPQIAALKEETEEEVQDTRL
T1 sequence (P13569 with tags, fused parts or gaps DEL508-508): as above

`COc1ccc(C)cc1[C@@]1(C(=O)NS(=O)(=O)c2cccc3nc(C)ccc23)C[C@@H](C)CO1` [Example 19, (2R,4R)-2-(2-methoxy-5-methylphenyl)-4-methyl-N-(2-methylquinoline-5-sulfonyl)oxolane-2-carboxamide]: the EC50 was 720 nM on F508delCFTR (setting [1]), 880 nM on F508delCFTR (setting [2]) and 33 nM at F508del/F508del CFTR. The “Maximum % activity (with co-corrector)” value on F508delCFTR (with co-corrector 2 μM) is listed as 850%. For the same compound, the Emax on F508delCFTR (without co-corrector) turned out to be 339%. Further, the “Emax (% Dual)” value at F508del/F508del CFTR was 253 % Dual.
As for `COc1ccc(C)cc1[C@@]1(C(=O)NS(=O)(=O)c2cccc3nc(C)ccc23)C[C@H](C)CO1` [Example 20, (2R,4S)-2-(2-methoxy-5-methylphenyl)-4-methyl-N-(2-methylquinoline-5-sulfonyl)oxolane-2-carboxamide], the EC50 on F508delCFTR (setting [1]) stood at 680 nM; on F508delCFTR (setting [2]), 1230 nM; at F508del/F508del CFTR, 35.1 nM. The “Maximum % activity (with co-corrector)” value at F508delCFTR (with co-corrector 2 μM) was 862%. Moreover, the Emax at F508delCFTR (without co-corrector) turned out to be 366%. Further, at F508del/F508del CFTR, the “Emax (% Dual)” value was found to be 201 % Dual.
Consider `CCc1ccc(Oc2cccnc2OC(F)F)c(C2(C(=O)NS(=O)(=O)c3cccc4nc(C)ccc34)CCCO2)c1` (stereo not drawn) [Example 21, 2-(2-{[2-(difluoromethoxy)pyridin-3-yl]oxy}-5-ethylphenyl)-N-(2-methylquinoline-5-sulfonyl)oxolane-2-carboxamide], for which the figures for the EC50 on F508delCFTR (setting [1]), at F508delCFTR (setting [2]) and on F508del/F508del CFTR were 1290 nM, 1540 nM and 11.8 nM, respectively. On F508delCFTR (without co-corrector), the Emax was 857%. In addition, the “Emax (% Dual)” value on F508del/F508del CFTR is reported as 199 % Dual.
`CCc1ccc(Oc2ccccc2)c([C@]2(C(=O)NS(=O)(=O)c3cccc4nc(C)ccc34)CCCO2)c1` [Example 22, (2S)-2-(5-ethyl-2-phenoxyphenyl)-N-(2-methylquinoline-5-sulfonyl)oxolane-2-carboxamide]: the EC50 was found to be 1140 nM at F508delCFTR (setting [1]), 1950 nM at F508delCFTR (setting [2]) and 589 nM on F508del/F508del CFTR. Further, the “Maximum % activity (with co-corrector)” value on F508delCFTR (with co-corrector 2 μM) came to 673%. The Emax at F508delCFTR (without co-corrector) was determined as 235%. Also, the “Emax (% Dual)” value at F508del/F508del CFTR amounted to 200 % Dual.
As to `CCc1ccc(Oc2ccccc2)c([C@@]2(C(=O)NS(=O)(=O)c3cccc4nc(C)ccc34)CCCO2)c1` [Example 23, (2R)-2-(5-ethyl-2-phenoxyphenyl)-N-(2-methylquinoline-5-sulfonyl)oxolane-2-carboxamide], the half-maximal effective concentration (EC50) on F508delCFTR (setting [1]) was 480 nM; on F508delCFTR (setting [2]) it was 1070 nM; at F508del/F508del CFTR it was 20 nM. For the same compound, the Emax at F508delCFTR (without co-corrector) was determined as 726%. In addition, on F508del/F508del CFTR, the “Emax (% Dual)” value was 241 % Dual.
For `CCc1ccc(Oc2cccnc2OC)c([C@]2(C(=O)NS(=O)(=O)c3cccc4nc(C)ccc34)CCCO2)c1` [Example 24, (2S)-2-{5-ethyl-2-[(2-methoxypyridin-3-yl)oxy]phenyl}-N-(2-methylquinoline-5-sulfonyl)oxolane-2-carboxamide], the EC50 on F508delCFTR (setting [1]) is 2520 nM; at F508delCFTR (setting [2]), 3630 nM; at F508del/F508del CFTR, over 800 nM. At F508delCFTR (with co-corrector 2 μM), the “Maximum % activity (with co-corrector)” value was determined as 449%. Besides, on F508delCFTR (without co-corrector), the Emax came to 141%. Also, the “Emax (% Dual)” value on F508del/F508del CFTR was 167 % Dual.
Take `CCc1ccc(Oc2cccnc2OC)c([C@@]2(C(=O)NS(=O)(=O)c3cccc4nc(C)ccc34)CCCO2)c1` [Example 25, (2R)-2-{5-ethyl-2-[(2-methoxypyridin-3-yl)oxy]phenyl}-N-(2-methylquinoline-5-sulfonyl)oxolane-2-carboxamide]: the values for the concentration for a half-maximal effect (EC50) on F508delCFTR (setting [1]), on F508delCFTR (setting [2]) and on F508del/F508del CFTR were 580 nM, 1450 nM and 30.6 nM, respectively. Further, the “Maximum % activity (with co-corrector)” value at F508delCFTR (with co-corrector 2 μM) stood at 954%. In addition, the Emax on F508delCFTR (without co-corrector) was 476%. The “Emax (% Dual)” value on F508del/F508del CFTR turned out to be 279 % Dual.
With `CCc1ccc(Oc2cccnc2OC(F)F)c([C@]2(C(=O)NS(=O)(=O)c3cccc4nc(C)ccc34)CCCO2)c1` [Example 26, (2S)-2-(2-{[2-(difluoromethoxy)pyridin-3-yl]oxy}-5-ethylphenyl)-N-(2-methylquinoline-5-sulfonyl)oxolane-2-carboxamide], the half-maximal effective concentration (EC50) on F508delCFTR (setting [1]) stood at 3270 nM; at F508delCFTR (setting [2]), 3970 nM; at F508del/F508del CFTR it was 171 nM. Moreover, on F508delCFTR (with co-corrector 2 μM), the “Maximum % activity (with co-corrector)” value came out at 828%. Further, on F508delCFTR (without co-corrector), the Emax came out at 282%. In addition, at F508del/F508del CFTR, the “Emax (% Dual)” value came out at 130 % Dual.
Regarding `CCc1ccc(Oc2cccnc2OC(F)F)c([C@@]2(C(=O)NS(=O)(=O)c3cccc4nc(C)ccc34)CCCO2)c1` [Example 27, (2R)-2-(2-{[2-(difluoromethoxy)pyridin-3-yl]oxy}-5-ethylphenyl)-N-(2-methylquinoline-5-sulfonyl)oxolane-2-carboxamide], the values for the EC50 on F508delCFTR (setting [1]), at F508delCFTR (setting [2]) and on F508del/F508del CFTR were 650 nM, 1470 nM and 4.6 nM, respectively. Also, the Emax at F508delCFTR (without co-corrector) amounted to 709%. Besides, on F508del/F508del CFTR, the “Emax (% Dual)” value came to 212 % Dual.
